Assay results taken from patent publication US10039758B2 (priority 2014, dated 2018).
“Also recorded” adds a separate entry of the source. Read-outs that look alike come from different tables or passages of the source.

How the values were obtained:
[1] = system: anthrax lethal toxin (LF-PA), RAW264.7 cells; assay type: cell-based, mouse
[2] = system: diphtheria toxin, C32 human melanoma cell line; assay type: cell-based
[3] = system: anthrax toxin (12 μg LF + 40 μg PA); parameters: species or system Sprague-Dawley rats; details: rat, in vivo
[4] = system: caspase-1; assay type: cell-based, mouse
[5] = system: MEK2; assay type: cell-based, mouse
[6] = molecular target: LF (Bacillus anthracis, UniProt P15917); assay type: biochemical
[7] = system: PA+FP59, RAW264.7 cells; assay type: cell-based, mouse
[8] = system: PA; assay type: cell-based, mouse
[9] = system: acidic organelles; assay type: cell-based, mouse; details: RAW264.7, AQ 1 hour, 500 ng/ml PA 1 hour
[10] = molecular target: purified human cathepsin B (Homo sapiens, UniProt P07858); assay type: biochemical; details: 4, 8, 16, 33, 66 uM, without drug pre-incubation (FIG. 16)
[11] = molecular target: T1, cathepsin B (Mus musculus, UniProt P10605); assay type: cell-based; details: RAW264.7, 4-66 uM, 1 hour before lysis (FIG. 17)
[12] = molecular target: T1, cathepsin B; assay type: biochemical; details: RAW264.7 lysate, 4-66 uM (FIG. 18)
[13] = molecular target: cathepsin B (Homo sapiens, UniProt P07858); assay type: binding
[14] = system: Ebola virus (Kikwit); assay: microbe, parasite or virus in culture; assay type: cell-based; details: Zaire ebolavirus, HeLa, 48 h
[15] = system: Respiratory syncytial virus (RSV): Strain A-2; assay: microbe, parasite or virus in culture; assay type: cell-based; details: human respiratory syncytial virus, HEp-2
[16] = system: Clostridium difficile Toxin B, RAW264.7 cells
[17] = system: Human Cytomegalovirus (CMV Strain AD169); details: Human Cytomegalovirus assay
[18] = system: Ebola virus; details: cited from earlier work
[19] = in vitro
[20] = in vitro; details: human
[21] = in vitro; details: human; remark: listed apart in the source
[22] = system: Chikungunya virus (CHIV); assay: microbe, parasite or virus in culture; details: HFF-1
[23] = system: endosomal acidification; details: cited from earlier work
[24] = system: host lysosomal cathepsin B; details: cited from earlier work

T1 sequence (P10605 80-333): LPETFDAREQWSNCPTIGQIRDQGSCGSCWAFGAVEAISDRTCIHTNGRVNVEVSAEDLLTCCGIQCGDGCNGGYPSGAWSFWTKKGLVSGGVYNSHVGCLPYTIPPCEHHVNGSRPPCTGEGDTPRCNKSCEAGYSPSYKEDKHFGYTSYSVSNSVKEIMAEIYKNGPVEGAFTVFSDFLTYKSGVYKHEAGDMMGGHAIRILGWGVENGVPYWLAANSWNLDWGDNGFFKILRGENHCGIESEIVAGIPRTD
LF, sequence (P15917 34-809 limits assumed): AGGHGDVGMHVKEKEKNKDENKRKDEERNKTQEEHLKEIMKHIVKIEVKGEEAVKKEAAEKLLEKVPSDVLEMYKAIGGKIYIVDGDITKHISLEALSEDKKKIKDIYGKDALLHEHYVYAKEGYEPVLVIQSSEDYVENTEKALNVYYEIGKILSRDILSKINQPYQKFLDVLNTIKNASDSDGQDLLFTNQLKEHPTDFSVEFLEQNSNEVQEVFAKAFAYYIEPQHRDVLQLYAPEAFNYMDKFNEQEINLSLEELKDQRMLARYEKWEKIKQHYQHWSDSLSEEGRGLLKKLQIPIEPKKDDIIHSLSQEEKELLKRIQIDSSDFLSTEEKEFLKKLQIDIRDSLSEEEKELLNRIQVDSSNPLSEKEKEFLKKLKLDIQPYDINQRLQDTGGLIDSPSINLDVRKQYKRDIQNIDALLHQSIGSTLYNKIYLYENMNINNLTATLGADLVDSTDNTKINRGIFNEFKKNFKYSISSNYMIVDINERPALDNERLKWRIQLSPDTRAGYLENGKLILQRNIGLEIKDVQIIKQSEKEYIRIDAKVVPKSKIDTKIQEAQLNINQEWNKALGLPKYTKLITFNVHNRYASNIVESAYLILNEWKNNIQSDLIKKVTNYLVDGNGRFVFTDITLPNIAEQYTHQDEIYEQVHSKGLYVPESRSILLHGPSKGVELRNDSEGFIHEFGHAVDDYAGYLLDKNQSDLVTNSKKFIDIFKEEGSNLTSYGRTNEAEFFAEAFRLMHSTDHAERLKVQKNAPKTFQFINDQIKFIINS

Molecule: CCN(CC)Cc1cc(Nc2ccnc3cc(Cl)ccc23)ccc1O [AQ, Amodiaquine]
- protection of host cells against anthrax toxin killing (cell survival) [1]: increased survival; also recorded: completely protect
- sensitivity of host cells to PA83+LF versus PA63+LF [1]: equally reduces sensitivity of host cells to both PA83+LF and PA63+LF treatments
- multiplex hit in JHCCL screen: inhibition of anthrax and diphtheria toxin cell killing [2]: inhibited anthrax and diphtheria toxins
- survival of C32 cells exposed to diphtheria toxin [2]: increase survival
- clinical signs of toxin challenge [3]: all of the animals in that group displayed classical signs of having undergone a toxin challenge
- survival and toxin-associated symptoms [3]: survived; also recorded: protected all of the rats; also recorded: all survived without displaying toxin-associated symptoms
- active caspase-1 (FLICA fluorescence) after LF-PA [4]: not detected
- cleavage of MEK2 by LF in cells (immunoblot) [5]: completely prevented this effect
- proteolytic activity of LF on MAPKK peptide (emission at 523 nm) [6]: does not block the proteolytic activity of LF
- sensitivity of cells to PA+FP59 [7]: less sensitive to treatment with PA+FP59
- binding of PA83 to cells and proteolytic processing of PA to PA63 [8]: did not block binding of PA83 to cells or block proteolytic processing of PA to generate PA63
- cell-associated Lysosensor fluorescence (endosomal acidification) [9]: markedly decreased cell-associated Lysosensor fluorescence
- inhibition of cathepsin B activity, purified human cathepsin B [10]: directly inhibit cathepsin B activity in a dose dependent manner
- cathepsin B enzymatic activity in cells pre-treated with drug [11]: lost cathepsin B enzymatic activity in a dose dependent manner
- cathepsin B activity in protein lysate from cells not exposed to drugs prior to lysis [12]: inhibited cathepsin B activity
- binding to cathepsin B (STD difference spectrum) ([13]; 2 mM AQ, 20 μM cathepsin B): binding to the enzyme
- STD effect, atom H4 ([13]; relative to the H4 atom (100%)): 100%
- STD effect, atom H5 ([13]; relative to the H4 atom (100%)): 97%
- EC50 [14]: 3.8 µM
- EC50 [15]: 32 µM
- survival of RAW264.7 macrophages exposed to Clostridium difficile Toxin B [16]: increase survival
- CC50 [17]: > 60 µM
- inhibition of Ebola virus pathogenicity in cells [18]: inhibit Ebola virus pathogenicity in cells
- CC50 [19]: 31 µM
- CC50 [20]: 50 µM
- CC50 [21]: > 50 µM
- EC50 [22]: 18.3 µM

Molecule: CCN(CC)CCCC(C)Nc1ccnc2cc(Cl)ccc12 (stereo not drawn) [CQ, Chloroquine]
- multiplex hit in JHCCL screen: inhibition of anthrax and diphtheria toxin cell killing [2]: inhibited anthrax and diphtheria toxins
- inhibition of cathepsin B activity, purified human cathepsin B [10]: weaker inhibitors of cathepsin B activity
- cathepsin B enzymatic activity in cells pre-treated with drug [11]: weaker inhibitors of cathepsin B activity
- cathepsin B activity in protein lysate from cells not exposed to drugs prior to lysis [12]: weaker inhibitors of cathepsin B activity
- inhibition of Ebola virus pathogenicity in cells [18]: inhibit Ebola virus pathogenicity in cells
- endosomal acidification [23]: prevent endosomal acidification

Molecule: C=C[C@H]1C[N@@]2CC[C@H]1C[C@@H]2[C@@H](O)c1ccnc2ccccc12 [Cinchonine]
- protection of host cells against anthrax toxin killing (cell survival) [1]: none of the other quinoline-containing antimalarial compounds, Cinchonine, Primaquine, and Quinidine, from JHCCL were active

Molecule: CCNCc1cc(Nc2ccnc3cc(Cl)ccc23)ccc1O [DEAQ, N-Desethyl Amodiaquine]
- protection of host cells against anthrax toxin killing (cell survival) [1]: increased survival
- inhibition of cathepsin B activity, purified human cathepsin B [10]: directly inhibit cathepsin B activity in a dose dependent manner
- cathepsin B enzymatic activity in cells pre-treated with drug [11]: lost cathepsin B enzymatic activity in a dose dependent manner
- cathepsin B activity in protein lysate from cells not exposed to drugs prior to lysis [12]: inhibited cathepsin B activity
- EC50 [14]: 3.6 µM

Molecule: CCNCCCC(C)Nc1ccnc2cc(Cl)ccc12 (stereo not drawn) [DECQ, Desethyl-Chloroquine]
- inhibition of cathepsin B activity, purified human cathepsin B [10]: weaker inhibitors of cathepsin B activity
- cathepsin B enzymatic activity in cells pre-treated with drug [11]: weaker inhibitors of cathepsin B activity
- cathepsin B activity in protein lysate from cells not exposed to drugs prior to lysis [12]: weaker inhibitors of cathepsin B activity

Molecule: COc1cc(NC(C)CCCN)c2ncccc2c1 (stereo not drawn) [Primaquine]
- protection of host cells against anthrax toxin killing (cell survival) [1]: none of the other quinoline-containing antimalarial compounds, Cinchonine, Primaquine, and Quinidine, from JHCCL were active

Molecule: C=C[C@H]1C[N@@]2CC[C@H]1C[C@@H]2[C@@H](O)c1ccnc2ccc(OC)cc12 [Quinidine]
- protection of host cells against anthrax toxin killing (cell survival) [1]: none of the other quinoline-containing antimalarial compounds, Cinchonine, Primaquine, and Quinidine, from JHCCL were active

Molecule: CA-074
- effect of cathepsin B inhibition on cellular sensitivity to LF-PA [24]: reduction of cellular sensitivity to LF-PA
